Experimental data reported in patent publication US20240173316A1, “Methods and Compositions for Treating Cancer” (Ohio Northern University, priority 2022, published 2024).

Tests used:
[1] = biological target: RGS4-Galpha-q interaction (Homo sapiens (Human), UniProt P49798); assay: NanoBit RGS/Gα cell-based protein-protein interaction assay, RGS4; conditions: for IC50: inhibition of RGS4-Galpha-q interaction, read-out: RGS4 IC50 μM (95% Cl)
Procedure: (§1) The NanoBit cell-based assay was performed as previously described. The NanoBit substrate (NanoGlo Live Cell Reagent) was prepared as a 5× stock, per the manufacture's protocol, and added to the wells at 10 μL per well. Post substrate addition, a baseline signal was established for 30 minutes using a BioTek Synergy 2 plate reader in luminescent mode. Post baseline read 10 μL of vehicle (Hank's Balanced Salt solution+20 mM HEPES) or AlF4 (stock solution: 40 mM NaF, 500 μM AlCl3) was added and luminescence was measured for an additional 30 minutes. Lastly, 4× compound or vehicle (DMSO) was added to the appropriate wells, and the plate was read for an additional hour. Data presented represents the mean of N=3 independent experiments±S.E.M. All data analysis was completed in GraphPad Prism 7 and 8.
(§2) All selected compounds were purchased and tested for their ability to inhibit RGS2-Galpha-q interaction in NanoBit assays. The same assay was also used to test the compounds' ability to inhibit RGS4-Galpha-q interaction as a measure of selectivity. RGS4 was not part of the docking calculations performed here because no structure is available for the human RGS4. It was used in the assays, nonetheless, to test for the validity of our docking approach to selectivity and binding.

[2] = biological target: RGS2-Galpha-q interaction (Homo sapiens (Human), UniProt P41220); assay: NanoBit RGS/Gα cell-based protein-protein interaction assay, RGS2; conditions: for Selectivity: RGS4 IC50/RGS2 IC50; for IC50: inhibition of RGS2-Galpha-q interaction, read-out: RGS2 IC50 μM (95% Cl)
Chain of RGS2-Galpha-q interaction (P41220 whole entry): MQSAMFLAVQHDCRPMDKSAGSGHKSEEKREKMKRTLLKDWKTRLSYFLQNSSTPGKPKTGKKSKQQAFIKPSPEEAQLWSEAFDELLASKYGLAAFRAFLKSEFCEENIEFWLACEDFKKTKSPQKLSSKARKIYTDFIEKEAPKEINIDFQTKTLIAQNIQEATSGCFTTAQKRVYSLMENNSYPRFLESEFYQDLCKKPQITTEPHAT
Procedure: as §1, §2

NCI 60 cell panel = assay: NCI 60 Cell One-Dose Screen; type: cell-based, human; conditions: single high dose 10^−5 M; leukemia, NSCLC, colon, CNS, melanoma, ovarian, renal, prostate, breast
Procedure: Another study was conducted to measure the cytotoxic effect of the RGS2 inhibitor. The growth reduction feature of direct RGS2 inhibitors was examined within the National Cancer Institute single high dose panel established that the drug was cytotoxic across a variety of cancers. Spanning across 60 standard cancer cell lines, this cytotoxicity assessment measured anti-proliferative activity within the following cancer types, with numerous subtypes below them: leukemia, non-small cell lung cancer, colon cancer, central nervous system cancer, melanoma, ovarian cancer, renal cancer, prostate cancer, and breast cancer.
The NCI 60 Cell One-Dose Screen is a standardized test carried out by National Cancer Institute, where a compound is tested at an initial single high dose (10^−5 M) across the full NCI 60 cell panel. Once a compound is assessed to be effective against a standard threshold number of cell lines, the compound is progresses to a full five-dose screen to determine anti-proliferative capability. This assay is ran relative to parallel studies with a no-drug control and at time zero number of cells.

[3] = system: LNCaP prostate cancer cell line; assay: Wound healing (scratch) migration assay; type: cell-based, human; conditions: 1 μM, more potently at 2 μM and higher
Procedure: It has previously been shown that RGS2 gene expression in the human prostate cancer cells LnCap were downgraded by infection with small hairpin RNA (shRNA) targeting the RGS2 gene (henceforth “shRGS2”). These shRGS2 LnCap cells expressed lower levels of RGS2 protein compared to the non-infected control, leading to a reduction in RGS2 activity.
Metastatic evaluation was carried out by a wound healing assay. A wound healing assay measures cell migration of individual cells, cell sheets, and clusters from one location to another. A single mechanical laceration was made on a 12-well plate growing a cancer cells monolayer that was grown overnight, and the cells were allowed to regrow across the inclusion over the span of 48 hours. Results were recorded between the knockdown shRGS2 and control in values of the closure % as the wound healing took place at 24 hour and 48 hour time points (FIG. 3). Results for the RGS2 inhibitor treated cells were recorded as pictures taken at 5 separate time points every 24 hours (FIG. 4A-H).

Chain of RGS4-Galpha-q interaction (P49798 whole entry): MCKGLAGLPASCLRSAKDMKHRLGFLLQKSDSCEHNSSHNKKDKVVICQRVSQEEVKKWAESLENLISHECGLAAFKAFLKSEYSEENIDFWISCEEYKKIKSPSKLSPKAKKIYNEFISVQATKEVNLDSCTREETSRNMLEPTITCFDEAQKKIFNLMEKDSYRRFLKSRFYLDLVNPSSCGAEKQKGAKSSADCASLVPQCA

| IC50 [1] [µM] | Selectivity [2] | IC50 [2] [µM] | activity towards RGS4 ([1]; result in words) | SMILES | cytotoxic effect across cancer types (NCI 60 cell panel) | migration of LNCaP cells [3] |
| --- | --- | --- | --- | --- | --- | --- |
| 10.1 | 289 | 0.04 |  | Nc1nc2c(nc(NCCCN3CCOCC3)n2[C@H]2O[C@@H](CO)[C@H](O)[C@@H]2O)c(=O)[nH]1 [AJ-1] | cytotoxic effect against all aforementioned cancers except prostate, ovarian, and colon cancer |  |
| 18.8 | 13 | 1.45 |  | COc1ccc(Cn2nnnc2[C@H](c2cc3cc(C)ccc3[nH]c2=O)N2CCN(C3CCCCC3)CC2)cc1 [AJ-2] |  |  |
| 23 | 1.53 | 15 |  | Cc1cc(C)c2[nH]c(=O)c([C@@H](c3nnnn3Cc3ccc4c(c3)OCO4)N3CCN(C)CC3)cc2c1 [AJ-5] |  |  |
| 14.1 | 0.51 | 27.6 |  | Cn1c(=O)c2c(nc(NCc3ccccc3)n2C[C@H](O)CN2CCN(Cc3ccccc3)CC2)n(C)c1=O [AJ-7] |  |  |
| 9.6 | 0.29 | 33.1 |  | CCc1ccc2[nH]c(=O)c(C(c3nnnn3Cc3ccc(F)cc3)N3CCN(C4CCCCC4)CC3)cc2c1 (stereo not drawn) [AJ-8] | strong cytotoxic effect against the full list of cancers |  |
|  |  | 78 | no apparent activity towards RGS4 | COCc1ccc2[nH]c(=O)c(C(c3nnnn3C[C@H]3CCCO3)N3CCN(Cc4ccccc4)CC3)cc2c1 (stereo partly drawn) [AJ-10] | strong cytotoxic effect against the full list of cancers |  |

Second part, the molecule before the results:

| SMILES | IC50 [1] [µM] | Selectivity [2] | IC50 [2] [µM] | activity towards RGS4 ([1]; result in words) | cytotoxic effect across cancer types (NCI 60 cell panel) | migration of LNCaP cells [3] |
| --- | --- | --- | --- | --- | --- | --- |
| Cc1onc(C(=O)NNC(=O)Nc2ccc(Cl)cc2)c1C(=O)N1CCN(C(c2ccccc2)c2ccccc2)CC1 [AJ-3] | 21 | 4.25 | 4.94 |  | strong cytotoxic effect against the full list of cancers | inhibited the migration ability |
| Cc1ccc([C@@H](C(=O)NC2CCCCC2)N(Cc2ccccc2Cl)C(=O)c2ccc(CN3CCOCC3)o2)o1 [AJ-4] | 25 | 1.81 | 13.8 |  | strong cytotoxic effect against the full list of cancers |  |
| Cc1cccc2cc([C@H](c3nnnn3Cc3ccc4c(c3)OCO4)N3CCN(C)CC3)c(=O)[nH]c12 [AJ-6] | ~9.6 | 0.48 | 19.8 |  |  |  |
| Cc1cc(C)c2[nH]c(=O)c(C(c3nnnn3Cc3ccc(F)cc3)N3CCN(C4CCCCC4)CC3)cc2c1 (stereo not drawn) [AJ-9] | 91 | 2.72 | 33.5 |  | strong cytotoxic effect against the full list of cancers |  |
